Assay results from patent publication US20130040914A1, “PRODRUGS OF AN HIV REVERSE TRANSCRIPTASE INHIBITOR” (priority 2010, published 2013).
In brackets after ≈: the same amount, converted by molar mass.

What was measured:
[1] = Aqueous solubility (background statement); assay type: physicochemical; conditions: qualitative statement in Background
[2] = Oral bioavailability in pharmacokinetic studies in animals; assay type: in vivo; conditions: qualitative
[3] = biological target: HIV reverse transcriptase (Human immunodeficiency virus type 1 group M subtype B, UniProt P03366); conditions: qualitative statement in Background; cited from earlier work
[4] = Water solubility at room temperature (excess solid stirred in deionized water, HPLC); conditions: thermodynamic from solid; for solubility at 24 h: deionized water
Protocol: A stir bar was then placed in the tube and the tube placed on a multi-position stirrer plate. […] The solubility of each compound was determined via HPLC, wherein a portion of the supernatant was removed from the tube, diluted with ACN:water (50:50 by volume) as necessary to achieve a suitable concentration for analysis, and then analyzed by HPLC against a standard (=a solution of the K salt of Example 1 in ACN:water 50:50 by volume). One determination was made for each compound.
HPLC: column=Agilent Zorbax Eclipse (4.6×50 mm, 1.8 micron); mobile phase=0.1% H3PO4:ACN; gradient=90% to 10% H3PO4; flow rate=1.5 mL/minute; column temperature=45° C.; injection volume=25 μL; UV sampling with detection wavelength=210 nm; run time=15 minutes.

SMILES	aqueous solubility [1]	oral bioavailability [2]	non-nucleoside reverse transcriptase inhibition [3]	solubility at 24 h [4]	solubility at 4 h [4]
N#Cc1cc(Cl)cc(Oc2c(C(F)(F)F)ccn(Cc3n[nH]c4ncccc34)c2=O)c1 [Compound A, 3-chloro-5-{[2-oxo-1-(1H-pyrazolo[3,4-b]pyridin-3-ylmethyl)-4-(trifluoromethyl)-1,2-dihydropyridin-3-yl]oxy}benzonitrile]	relatively low	relatively low	potent	0.2 µg/mL (≈ 0.449 µM)	–
N#Cc1cc(Cl)cc(Oc2c(Cl)ccn(Cc3n[nH]c4ncccc34)c2=O)c1 [Compound B, 3-chloro-5-{[4-chloro-2-oxo-1-(1H-pyrazolo[3,4-b]pyridin-3-ylmethyl)-1,2-dihydropyridin-3-yl]oxy}benzonitrile]	relatively low	–	potent	–	–
N#Cc1cc(Cl)cc(Oc2c(C(F)(F)F)ccn(Cc3nn(COP(=O)([O-])O)c4ncccc34)c2=O)c1.O.[K+] [Example 1, Potassium (3-{[3-(3-chloro-5-cyanophenoxy)-2-oxo-4-(trifluoromethyl)pyridin-1(2H)-yl]methyl}-1H-pyrazolo[3,4-b]pyridin-1-yl)methyl hydrogen phosphate monohydrate]	–	–	–	–	12000 µg/mL
CN(CCN)C(=O)n1nc(Cn2ccc(C(F)(F)F)c(Oc3cc(Cl)cc(C#N)c3)c2=O)c2cccnc21.O=S(=O)(O)c1ccccc1 [Example 9, N-(2-Aminoethyl)-3-{[3-(3-chloro-5-cyanophenoxy)-2-oxo-4-(trifluoromethyl)pyridin-1(2H)-yl]methyl}-N-methyl-1H-pyrazolo[3,4-b]pyridine-1-carboxamide benzenesulfonate]	–	–	–	1100 µg/mL	–
